pIC50: −log10 of the molar value. Values joined by “and” are separate entries in the source; they are usually repeats but may differ in a detail not shown here. Identical values can stand only once. Like-named read-outs stand apart in the source and are kept apart here.
How the values were obtained:
[1] = tested on: influenza A/California/07/2009 (H1N1); assay: microbe, parasite or virus in culture; type: cell-based, Influenza A Virus
[2] = tested on: SARS-CoV-2 (MEX-BC2/2020); assay: Live SARS-CoV-2 CPE-based antiviral assay in Vero E6 cells (neutral red uptake); type: cell-based
Vero E6 cells = conditions: for Viability of Uninfected Vero E6 Cells (% Vehicle): 4-day treatment; for Viability of Uninfected Vero E6 Cells (A540): 4 days, individual replicates
gp120 = conditions: by binding gp120; cited from earlier work
Ebola virus = conditions: cited from earlier work
glycoprotein B-2 (gpB-2) = glycoprotein B-2 (gpB-2) (Human herpesvirus 2, UniProt P08666); conditions: cited from earlier work
glycoprotein B-2 (gpB-2), sequence (P08666 23-904 limits assumed): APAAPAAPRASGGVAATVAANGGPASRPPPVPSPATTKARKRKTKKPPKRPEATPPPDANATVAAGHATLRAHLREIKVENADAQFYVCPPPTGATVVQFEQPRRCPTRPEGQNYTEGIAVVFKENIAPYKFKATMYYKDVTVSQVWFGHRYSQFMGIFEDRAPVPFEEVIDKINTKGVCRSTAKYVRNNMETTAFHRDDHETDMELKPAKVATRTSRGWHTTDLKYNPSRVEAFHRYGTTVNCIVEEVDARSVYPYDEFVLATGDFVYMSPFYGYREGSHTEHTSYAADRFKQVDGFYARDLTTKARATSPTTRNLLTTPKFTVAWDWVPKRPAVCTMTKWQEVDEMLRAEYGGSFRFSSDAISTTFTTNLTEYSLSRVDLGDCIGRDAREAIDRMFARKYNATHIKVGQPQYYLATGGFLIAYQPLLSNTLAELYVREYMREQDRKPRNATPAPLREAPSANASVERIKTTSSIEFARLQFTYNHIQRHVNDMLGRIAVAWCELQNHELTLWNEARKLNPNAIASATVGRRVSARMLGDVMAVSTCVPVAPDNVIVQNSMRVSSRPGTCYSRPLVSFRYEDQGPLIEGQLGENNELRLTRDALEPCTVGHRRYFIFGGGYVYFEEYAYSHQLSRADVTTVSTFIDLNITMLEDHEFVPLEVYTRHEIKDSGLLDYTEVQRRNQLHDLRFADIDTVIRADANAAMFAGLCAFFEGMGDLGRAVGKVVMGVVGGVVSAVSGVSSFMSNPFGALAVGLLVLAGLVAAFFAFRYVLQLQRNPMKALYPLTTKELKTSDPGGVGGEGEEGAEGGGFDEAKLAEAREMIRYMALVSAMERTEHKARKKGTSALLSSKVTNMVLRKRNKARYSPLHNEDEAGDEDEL

For O=C1c2c(O)c(=O)ccn2N([C@@H]2c3ccccc3SCc3c2ccc(F)c3F)[C@@H]2COCCN12 [Baloxavir, baloxavir], the “IAV Infectivity in A549 Cells (% Vehicle)” value ([1]; 0.01 nM, single data point) was 95.3%, the “IVA Infectivity in A549 Cells (Absorbance 490 nm)” value (shortened to “IVA Infectivity in A549 Cells”) ([1]; 0.01 nM, single data point) was 1.064 and the “IAV Infectivity in A549 Cells (% Vehicle)” value ([1]; 0.06 nM, single data point) was 86.9%. For the same compound, the “IVA Infectivity in A549 Cells” value ([1]; 0.06 nM, single data point) was 1.000, the “IAV Infectivity in A549 Cells (% Vehicle)” value ([1]; 0.32 nM, single data point) was 64.4% and the “IVA Infectivity in A549 Cells” value ([1]; 0.32 nM, single data point) was 0.828. For the same compound, the “IAV Infectivity in A549 Cells (% Vehicle)” value ([1]; 1.6 nM, single data point) was 17.7%, the “IVA Infectivity in A549 Cells” value ([1]; 1.6 nM, single data point) was 0.471 and the “IAV Infectivity in A549 Cells (% Vehicle)” value ([1]; 8.0 nM, single data point) was 6.1%. The “IVA Infectivity in A549 Cells” value ([1]; 8.0 nM, single data point) was 0.383, the “IAV Infectivity in A549 Cells (% Vehicle)” value ([1]; 40 nM, single data point) was 5.6% and the “IVA Infectivity in A549 Cells” value ([1]; 40 nM, single data point) was 0.379. For the same compound, the “IAV Infectivity in A549 Cells (% Vehicle)” value ([1]; 0.2 μM, positive control) was 6.0%, the “IVA Infectivity in A549 Cells” value ([1]; 0.2 μM, positive control, 48 hours, individual replicates, listed as BLX) was 0.383 and 0.391 and 0.374 and the “IAV Infectivity in A549 Cells (% Vehicle)” value ([1]; 200 nM, single data point) was 6.0%. The “IVA Infectivity in A549 Cells” value ([1]; 200 nM, single data point) was 0.382, the “IAV Infectivity in A549 Cells (% Vehicle)” value ([1]; 1,000 nM, single data point) was 10.8% and the “IVA Infectivity in A549 Cells” value ([1]; 1,000 nM, single data point) was 0.419. For the same compound, the pIC50 ([1]; Influenza A virus, H1N1, control antiviral, single data points, A549 cells, 48 hours, read-out: IC50, IAV Antiviral Assay) was 9.31, the block of infection ([1]; at some concentrations tested) was “over 99%” and the “Viability in A549 cells (% Vehicle)” value (A549 cells; 0.2 μM) was 102.0 ± 2.4%.
In the case of CCN(CC)CCCC(C)Nc1ccnc2cc(Cl)ccc12 (centres unmarked) [CQ, chloroquine diphosphate], the “Absorbance (540 nm), SARS-CoV-2-induced CPE” value [2] was 0.985 and 1.011, the “Inhibition of SARS-CoV-2 (MEX-BC2/2020) Virus-Induced CPE (%)” value (“Inhibition … (%)” for short) ([2]; 5 μM, positive control wells) was 61.8 ± 2.5% and the “Viability of Uninfected Vero E6 Cells (% Vehicle)” value (Vero E6 cells; 5 μM) was 75.9 ± 2.6%. The “Viability of Uninfected Vero E6 Cells (A540)” value (“Viability … (A540)” for short) (Vero E6 cells; 5 μM) was 1.206 and 1.262.
In the case of C[S+](C)[O-] [DMSO, Dimethyl sulfoxide], the “Viability of Uninfected Vero E6 Cells (% Vehicle)” value (Vero E6 cells; 10%, cytotoxic agent control) was −0.2 ± 0.0%, the “Viability … (A540)” value (Vero E6 cells; 10%, cytotoxic agent control) was 0.074 and 0.073 and the “block of cell viability” value (Vero E6 cells; tested at 10%) was “more than 99%”.
With CC[C@H]1CN2CCc3cc(OC)c(OC)cc3[C@@H]2C[C@@H]1C[C@H]1NCCc2cc(OC)c(OC)cc21 [Emetine] the “inhibition of cell viability” value (A549 cells; 10 μM) was “greater than 85%”, the “Viability in A549 cells (% Vehicle)” value (A549 cells; 10 μM, cytotoxic control) was 14.0 ± 4.6% and the “Viability in A549 Cells (A490)” value (A549 cells; 10 μM, cytotoxic control, 48 hours, individual replicates) was 0.236 and 0.179.
With N#C[C@@]1(c2ccc3c(N)ncnn23)O[C@H](CO)[C@@H](O)[C@H]1O [GS-441524] the “Inhibition … (%)” value ([2]; 0.03 μM, single data point) was −7.0%, the “Inhibition … (%)” value ([2]; 0.25 μM, single data point) was 51.9% and the “Inhibition … (%)” value ([2]; 0.74 μM, single data point) was 89.7%. For the same compound, the “prevention of the virus-induced CPE” value ([2]; 1 μM) was “completely prevented”, the “Inhibition … (%)” value ([2]; 1 μM, positive control wells) was 112.3 ± 24.4% and the “Inhibition … (%)” value ([2]; 2.2 μM, single data point) was 89.9%. The “Inhibition … (%)” value ([2]; 6.7 μM, single data point) was 96.3%, the “Inhibition … (%)” value ([2]; 10 μM, positive control wells) was 117.2 ± 5.4% and the “prevention of the virus-induced CPE of the infected cells” value ([2]; control inhibitor, concentration not given) was “prevented completely”. The pIC50 ([2]; control inhibitor, single data points, Vero E6, 96 hours) was 6.77, the “Viability … (A540)” value (Vero E6 cells; 1 μM) was 1.404 and 1.753 and the “loss of viability in uninfected cells” value (Vero E6 cells; 10 μM) was “no significant loss of viability”. For the same compound, the “Viability … (A540)” value (Vero E6 cells; 10 μM) was 1.616.
For polyphenylene carboxymethylene [PPCM], the “cell-to-cell transmission and primary infection by multiple clades of HIV-1” value (gp120) is given as “prevents”, the “inhibition of Ebola virus” value (Ebola virus) is given as “inhibited” and the “binding to gpB-2, which prevents herpes attachment and fusion” value (glycoprotein B-2 (gpB-2)) is given as “binds”.

Source: patent publication US20240000828A1 (priority 2020, published 2024)
